Assay results reported in patent US20060193931A1, “Nutritional or therapeutic composition containing the compound oleuropeine or one of the derivatives thereof” (priority 2003, published 2006).

Assays:
Assay type in all cases: in vivo, rat (Wistar)
[1] = test system: ovariectomized female rats, suffering from inflammation (OVX inf); assay: Inflammation markers (plasma orosomucoid, spleen weight) in ovariectomized female rats with talc-induced inflammation; settings: OVX inf female Wistar rats; diet for 72 days; sacrifice D80; mean ± SEM
Experimental: (§1) The experiment was conducted on 40 female rats Wistar aged 6 months, amongst which thirty were ovariectomized (OVX) and 10 pseudo-operated (SH). Animals were placed in metabolic cages enabling to separately collect the urines at a controlled temperature of 21±1° C., according to a 12 h-12 h nyctohemeral cycle. Following the surgical operation at Day0, animals were accustomed for seven days to a basic semisynthetic diet (INRA, Jouy-en-Josas, France), supplemented with 2.5% groundnut oil and 2.5% rapeseed oil and humidified to 1 ml water per gram powder. At the end of this adaptation period, the rats were separated in four homogeneous batches according to weight parameters and were fed for 72 days 22 g per day of following diets: • Batch SH/10 pseudo-operated female rats fed control diet (basic diet supplemented with 2.5% groundnut oil and 2.5% rapeseed oil), • Batch OVXinf: 10 ovariectomized female rats fed control diet, • Batch OL: 10 ovariectomized female rats fed control diet supplemented with 0.015% oleuropein. • Batch HO: 10 ovariectomized female rats fed basic diet supplemented with 5% extra-virgin olive oil.
(§2) Oil storage was kept away from light. Feed was prepared once a week and stored at +4° C.
(§3) At D55, that is 3 weeks before the end of the experiment, an inflammation was induced in each batch, except in control batch (SH). […]

[2] = test system: ovariectomized female rats, suffering from inflammation (OVX inf); assay: Femur bone mineral density in ovariectomized female rats with talc-induced inflammation; settings: OVX inf female Wistar rats
Experimental: as §1, §2
At D55, that is 3 weeks before the end of the experiment, an inflammation was induced in each batch, except in control batch (SH). Four talc subcutaneous injections (3.2 g magnesium silicate (Sigma) suspended in […] physiological saline) were administrated in 4 distinct sites of the animal back.
The day of sacrifice (D80), animals were anesthetized with a chloral intraperitoneal injection (Fluka/8% solution, 0.4 ml/100 g of live weight). Blood samples were collected at abdominal aorta for dosing orosomucoid (inflammation marker, in particular of the acute phase for humans and rats (Fournier and al. 2000), that is produced by lever and other extra-hepatic sites under the control of II1, TNFα and II6 cytokines).
Femurs were collected and removed from adjacent soft tissues, then kept in 80% ethanol for bone density determination.

[3] = test system: ovariectomized female rats, suffering from inflammation (OVX inf); assay: Body weight and uterine weight in ovariectomized female rats with talc-induced inflammation (senile osteoporosis model); settings: OVX inf female Wistar rats
Experimental: as §1, §2, §3

[4] = diet with 0.015% oleuropein or 5% extra-virgin olive oil for 72 days, sacrifice D80, mean ± SEM
[5] = femur, oleuropein diet for 72 days

SMILES: C/C=C1/[C@H](O[C@@H]2O[C@H](CO)[C@@H](O)[C@H](O)[C@H]2O)OC=C(C(=O)OC)[C@H]1CC(=O)OCCc1ccc(O)c(O)c1 [oleuropein]
- spleen weight [1]: 0.201±0.011 g spleen/100 g body weight
- total bone mineral density (femur) [2, 4]: 0.2258±0.0028 g/cm^2
- bone cortical substance density [2, 5]: increase
- bone trabecular substance density [2, 5]: increase
- uterotrophic effect ([3]; diet for 72 days, judged from uterine weight): free from any uterotrophic effect
- uterine weight [3, 4]: 0.034±0.001 g uterus/100 g body weight
